Test results from US20090099237A1, “Methods of treating inflammatory diseases” (Roche Palo Alto LLC, priority 2007, published 2009).
pIC50: −log10 of the molar value.

Columns and labels:
[1] = tested on: IL-8 production in neutrophils; assay: Neutrophil assay, IL-8 production; type: cell-based; details: human neutrophils stimulated by inflammatory agents; FIG. 2
From the text: (§1) Selective CK1α, CK1α-CK1δ, CK1α-CK1ε or CK1α-CK1δ-CK1ε inhibitors can be tested for their antiinflammatory effects using a variety of in vitro and in vivo tests that are well known in the art. One such in vitro test involves the application of the inhibitor to human neutrophils to observe whether the induction of inflammatory cytokines, such as IL-8, by tumor necrosis factor (TNF) or lipopolysaccharide (LPS) can be reduced. This test is further described in Example 3. An example of an in vivo test, as described in Example 4, is the air pouch model of inflammatory synovitis in mice in which the inhibitors are tested for their blockade of neutrophil influx as well as of inflammatory cytokine accumulation.
The Histopaque 1077 and 1119 gradient density centrifugation method (Sigma-Aldrich) was used to isolate granulocytes from human blood. The granulocytes were recovered from the 1077/1119 interphase, washed twice with PBS. The red blood cells were lysed with PureGene red cell lysis buffer (Gentra Biosystems). The cells were washed again and resuspended in growth media (RPMI, 10% FBS, β-mercaptoethanol, Pen/Strep/glutamine and sodium pyruvate) at a density of 1 to 5 million per ml. […] The supernatant was analyzed for cytokine production (Luminex human 22-plex assay) and the cells were lysed for RNA production and analysis.

[2] = tested on: LPS-induced air pouch synovitis; assay: Air pouch synovitis model; type: in vivo, Balbc/J mice; details: 1 μg LPS, FIG. 3
From the text: as §1
Adult Balbc/J mice were purchased from Charles River Labs and housed and utilized according IACUC protocols and standards. The airpouch was inflated on the dorsal surface of each mouse with 3 ml of air, after light anesthesia with CO2/O2 mix. Three days later each pouch was re-inflated with 3 mls of air. After an additional three days, the pouches were injected with vehicle or compound (normally in 0.1% DMSO in PBS) in 1 ml per pouch. After 20 to 30 minutes, each pouch received 1 μg of LPS or control (PBS). The animals were euthanized four to six hours later. The pouches were flushed with 2 ml of PBS, the cells were then collected, counted and normalized for volume recovered. The fluid recovered was analyzed for cytokine production (Luminex Mouse 21-plex assay). The cells were lysed for RNA or protein analysis.

[3] = molecular target: T1, CK1α (Homo sapiens, UniProt P48729); assay: In vitro kinase assay (33P, peptide substrate); type: biochemical
T1 construct: purchased Invitrogen
T1 sequence (P48729 whole entry): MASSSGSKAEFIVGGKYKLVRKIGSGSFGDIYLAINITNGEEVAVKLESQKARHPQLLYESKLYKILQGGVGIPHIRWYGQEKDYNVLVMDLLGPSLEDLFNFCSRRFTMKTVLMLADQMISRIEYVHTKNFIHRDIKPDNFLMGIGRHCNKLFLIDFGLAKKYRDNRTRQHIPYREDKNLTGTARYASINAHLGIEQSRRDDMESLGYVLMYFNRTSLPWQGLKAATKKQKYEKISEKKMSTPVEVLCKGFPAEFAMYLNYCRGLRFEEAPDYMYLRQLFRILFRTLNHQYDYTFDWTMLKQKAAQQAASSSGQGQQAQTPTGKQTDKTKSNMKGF

Structure (SMILES): NC(=O)c1ccc(-c2nc(-c3ccc4c(c3)OCO4)c(-c3ccccn3)[nH]2)cc1 [SB431542, 4-(4-benzo-[1,3]dioxol-5-yl-5-pyridin-2-yl-1H-imidazol-2-yl)benzamide]
- inhibition of IL-8 production in neutrophils [1]: dose-dependent inhibition
- production of IL-6 ([2]; mouse air pouch fluid): inhibited
- production of MCP1 ([2]; mouse air pouch fluid): inhibited
- neutrophil influx ([2]; mouse air pouch, compound injected into pouch): inhibited
- pIC50 [3]: 5.85
